How the values were obtained:
mice = experiment: Passive avoidance test, scopolamine-induced memory failure; type: in vivo; conditions: scopolamine (1 mg/kg) group = 0%; for memory improvement / prevention activity to memory failure: passive avoidance latency, control without scopolamine and drugs = 100%, oral single administration, dose of compound not given
Source text: A shuttle box (50×15×40 cm) was used as an experimental device. The box was divided into two rooms by a guillotine door, where one of which was bright by illumination while the other was dark by black cloth, giving rise to two different illumination effects. Firstly, mice were placed into a bright room, the bright room was kept lighted and the guillotine door was kept open. The mice entered the dark room in 20 sec in accordance with their negative phototaxis and the guillotine door was kept closed upon the entrance. The latency period in which a mouse enters the dark room from the bright room was measured in a manner described above. On the first day of the test, all mice were subject to a training trial for 20-sec latency period. Next day, mice subject to the training trial were again placed in the bright room and the bright room was then kept lighted to render mice to enter the dark room. At this time, the electric shock of 0.8 mA was imposed for 3 sec by using an electric grid equipped on the bottom of the dark room to impose the electric shock on the sole of mice feet. After 24 hr of such acquisition trial, mice were again placed in the bright room and the bright room was then kept lighted to induce mice to enter the dark room. At this time, normal mice hesitated to enter the dark room due to the memory about the shock of the previous day. […] The control not subject to the administration of scopolamine and drugs was considered 100% and the group subject to the administration of scopolamine (1 mg/kg), known to result in the failure of memory through the inhibition of transmission of neurotransmitters, was considered 0%.

in vivo = conditions: male, ICR, mouse, in vivo, po
Source text: (§1) Furthermore, for 2 weeks after the administration, the death rate, general conditions and body weight of mice were examined and abnormality of organs was observed via autopsy.

ICR mice = experiment: in vivo; conditions: oral; for disorders (general conditions): all dosages (2.0 g/kg, 680, 230, 75 mg/kg); for disorders (general conditions) / results of autopsy (abnormality of organs): ICR mice; for results of autopsy (abnormality of organs): autopsy after 2 weeks observation, versus control group; for LD10: seven times in 1 week, male ICR mice, observed 2 weeks
Source text: as §1

| SMILES | prevention efficacy to memory failure (mice; positive control, oral administration 30 mg/kg, control = 100%) | LD50 (in vivo) | disorders (general conditions) (ICR mice) | results of autopsy (abnormality of organs) (ICR mice) | LD10 (ICR mice) | memory improvement / prevention activity to memory failure (mice) |
| --- | --- | --- | --- | --- | --- | --- |
| Nc1c2c(nc3ccccc13)CCCC2 [tacrine, reference compound] | 35% |  |  |  |  |  |
| CC1(C)CCC2(C(=O)O)CCC3(C)C(=CCC4C5(C)CCC(O)C(C)(CO)C5CCC43C)C2C1 (stereo not drawn) [hederagenine] |  | ≥ 5000 mg/kg | no disorders | not different from the control group | 750 mg/kg | 41.1% |
| CC1(C)CC[C@]2(C(=O)O)CC[C@]3(C)C(=CC[C@@H]4[C@@]5(C)CC[C@H](O)C(C)(C)[C@@H]5CC[C@]43C)[C@@H]2C1 [oleanolic acid] |  | ≥ 5000 mg/kg |  | not different from the control group | 750 mg/kg | 43.3% |
| C[C@H]1[C@H](C)CC[C@]2(C(=O)O)CC[C@]3(C)C(=CC[C@@H]4[C@@]5(C)CC[C@H](O)C(C)(C)[C@@H]5CC[C@]43C)[C@H]12 [ursolic acid] |  | ≥ 5000 mg/kg | no disorders | not different from the control group | 750 mg/kg | 37.0% |
